Measurements from patent US20160257697A1, “THIOPHENE-SUBSTITUTED TETRACYCLIC COMPOUNDS AND METHODS OFUSE THEREOF FOR THE TREATMENT OF VIRAL DISEASES” (priority 2013, published 2016).
Read-outs that look alike come from different tables or passages of the source.

Assays:
Test in all cases: microbe, parasite or virus in culture
Assay type in all cases: cell-based, Hepatitis C virus (HCV)
Conditions in all cases: Replicon Assay A
[1] = test system: HCV replicon 2B
How it was run: (§1)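 Read-out is replicon RNA per cell by real-time RT-PCR, normalised to cyclophilin mRNA amplified in the same well. Cells were exposed to compound for 3 days at 2000 cells/well in medium with 5% fetal bovine serum and 0.5% DMSO.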

[2] = test system: HCV replicon 1A
How it was run: as §1

[3] = test system: HCV replicon 1AY93H
How it was run: as §1

[4] = read-out: 1A Y93H IC50, replicon 1AY93H
[5] = read-out: 1A Y93H IC50, HCV replicon 1A Y93H

| Compound | IC50 ([1]; read-out: 2B IC50, replicon 2B) [nM] | IC50 ([2]; replicon 1A) [pM] | IC50 [3, 4] [nM] | other results |
| --- | --- | --- | --- | --- |
| COC(=O)N[C@H](C(=O)N1CCC[C@H]1c1ncc(-c2cc(F)c3c(c2)OC(c2cc(C)sc2C)n2c-3cc3cc(-c4cnc([C@@H]5CCCN5C(=O)[C@@H](NC(=O)OC)C(C)C)[nH]4)ccc32)[nH]1)C(C)C (single isomer, unassigned) [Compound 319] | – | – | – | IC50 ([1]; Hepatitis C virus, read-out: 2B IC50 (nM), replicon 2B): 8.06 nM; IC50 ([2]; Hepatitis C virus, replicon 1A): 1 pM; IC50 ([3]; Hepatitis C virus, read-out: 1A Y93H IC50 (nM), replicon 1AY93H): 9.38 nM |
| CCc1ccc(C2Oc3cc(-c4cnc([C@@H]5CCCN5C(=O)[C@@H](NC(=O)OC)C(C)C)[nH]4)cc(F)c3-c3cc4cc(-c5cnc([C@@H]6C[C@@H](F)CN6C(=O)C(NC(=O)OC)C6CCOC(C)(C)C6)[nH]5)ccc4n32)s1 (single isomer, unassigned) [Compound 261] | 9.84 | 1.5 | 0.043 | – |
| COC(=O)NC(C(=O)N1CCC[C@H]1c1ncc(-c2ccc3c(c2)cc2n3C(c3ccc(C(C)C)s3)Oc3cc(-c4cnc([C@@H]5CCCN5C(=O)[C@@H](NC(=O)OC)C(C)C)[nH]4)cc(C)c3-2)[nH]1)C1C[C@@H](C)O[C@@H](C)C1 (single isomer, unassigned) [Compound 365] | 0.154 | – | 0.38 | IC50 ([2]; Hepatitis C virus, replicon 1A): 2.7 pM |
| COC(=O)NC(C(=O)N1CCC[C@H]1c1ncc(-c2ccc3c(c2)cc2n3C(c3ccc(C4CC4)s3)Oc3cc(-c4cnc([C@@H]5CCCN5C(=O)[C@@H](NC(=O)OC)C(C)C)[nH]4)cc(F)c3-2)[nH]1)C1CCOC(C)(C)C1 (single isomer, unassigned) [Compound 221] | 0.21 | 2.2 | 0.18 | – |
| COC(=O)NC(C(=O)N1CCC[C@H]1c1ncc(-c2ccc3c(c2)cc2n3C(c3ccc(F)s3)Oc3cc(-c4cnc([C@@H]5CCCN5C(=O)[C@@H](NC(=O)OC)C(C)C)[nH]4)cc(F)c3-2)[nH]1)C1C[C@@H](C)O[C@@H](C)C1 (single isomer, unassigned) [Compound 349] | 0.39 | 1.4 | 0.266 | – |
| COC(=O)N[C@H](C(=O)N1CCC[C@H]1c1ncc(-c2cc(F)c3c(c2)OC(c2cc4ccccc4s2)n2c-3cc3cc(-c4cnc([C@@H]5C[C@H]6C[C@H]6N5C(=O)[C@@H](NC(=O)OC)C(C)C)[nH]4)ccc32)[nH]1)C(C)C (single isomer, unassigned) [Compound 614] | – | – | – | IC50 ([2]; Hepatitis C virus, HCV replicon 1A): 1.5 pM; IC50 [3, 5]: 2.21 nM |
| COC(=O)N[C@H](C(=O)N1CCC[C@H]1c1ncc(-c2cc(F)c3c(c2)OC(c2ccc(CC(C)(C)OC)s2)n2c-3cc3cc(-c4cnc([C@@H]5CCCN5C(=O)[C@@H](NC(=O)OC)C(C)C)[nH]4)ccc32)[nH]1)C(C)C (single isomer, unassigned) [Compound 843] | – | – | – | IC50 ([2]; HCV replicon 1A): 2.2 pM; IC50 ([3]; HCV replicon 1A Y93H, read-out: 1A Y93H IC50): 0.329 nM |
| COC(=O)NC(C(=O)N1CCC[C@H]1c1ncc(-c2cc(F)c3c(c2)OC(c2ccc(C4CC4)s2)n2c-3cc3cc(-c4cnc([C@@H]5C[C@H]6C[C@H]6N5C(=O)[C@@H](NC(=O)OC)C(C)C)[nH]4)ccc32)[nH]1)C(C)(C)F (single isomer, unassigned) [Compound 100] | – | 24.2 | 8.26 | – |
| CCc1ccc(C2Oc3cc(-c4cnc([C@@H]5CCCN5C(=O)[C@@H](NC(=O)OC)C(C)C)[nH]4)cc(F)c3-c3cc4cc(-c5cnc([C@@H]6C[C@@H](F)CN6C(=O)C(NC(=O)OC)C6CCOC(C)(C)C6)[nH]5)ccc4n32)s1 (single isomer, unassigned) [Compound 256] | – | 117 | 16.9 | – |
| COC(=O)N[C@H](C(=O)N1CCC[C@H]1c1ncc(-c2ccc3c(c2)OC(c2ccc(C4CC4)s2)n2c-3c(F)c3cc(-c4cnc([C@@H]5CCCN5C(=O)[C@@H](NC(=O)OC)C(C)C)[nH]4)ccc32)[nH]1)C(C)C (single isomer, unassigned) [Compound 605] | – | – | – | IC50 ([2]; HCV replicon 1A): 1.7 pM; IC50 [3, 5]: 1.26 nM |
| COC(=O)NC(C(=O)N1CCC[C@H]1c1ncc(-c2ccc3c(c2)cc2n3C(c3cc(C)c(C)s3)Oc3cc(-c4cnc([C@@H]5CCCN5C(=O)[C@@H](NC(=O)OC)C(C)C)[nH]4)cc(F)c3-2)[nH]1)C(C)(C)F (single isomer, unassigned) [Compound 40] | – | 2 | 1.12 | – |
